US20060117411A1, “Enhancing plant pathogen resistance via increasing BiP levels” (priority 1998, published 2006)

How the values were obtained:
PR1 mRNA [1] = experiment: SA spraying of Arabidopsis WT and saiI mutant, Northern blot of PR1; type: in vivo, Arabidopsis thaliana; settings: SA 5 mM
Method: WT and saiI mutants of the same ecotype were sprayed with SA (5 mM) and incubated in the light. Total RNA was extracted and probed with the PR1 and BiP gene from Arabidopsis. The induction of PR1 in WT Arabidopsis was detected 3 hours after SA-treatment and continued to increase until 8 hours (FIG. 10). […] As in tobacco plants, BiP mRNA levels increase prior to PR1 transcripts in SA treated Arabidopsis plants (FIG. 10) and diminish after prolonged incubations (data not shown).
Plants of Nicotiana tabacum cultivar Petit Havana (Maliga et al., 1973) were axenically grown in MS medium (Murashige and Skoog, 1962), 2% Sucrose in a temperature controlled room at 25° C. with a 16 h day/[…] regime and a light irradiance of 200 μE.m^−2.s^−1. Arabidopsis thaliana Nössen WT and saiI plants (Shah et al., 1997) were grown under the same conditions.
Plants were sprayed with 5 mM SA and 0.5% Tween 20 from all sides, ensuring contact on both sides of each leaf of the plant. Typically, 10 ml of the SA solution was sprayed onto each plant. Plants were then transferred from the 16 h day/8 h night regime to constant light regime.
(§1) Protoplasts RNAs were extracted as described by Jones et al., (1985). Leaves were ground in frozen liquid nitrogen and transferred to NTES buffer (0.1 M NaCl, 10 mM Tris pH 7.5, 1 mM EDTA, 1% SDS). Protoplasts samples were frozen in liquid nitrogen and thawed in NTES buffer. RNA was extracted after adding an equal volume of phenol/chloroform. Ethanol precipitation was carried out after incubation at −20° C. for 16 hours. The pellet was resuspended and RNA was selectively precipitated with LiCl (2M LiCl) for 2 hours on ice. The pellet was washed with 70% ethanol and resuspended in diethyl pyrocarbonate-treated water. Gel blots of total RNA denatured in formamide and formaldehyde were prepared. RNA was blotted onto Hybond-N membrane (Amersham Corp), as described by the manufacturer. […]

PR1 mRNA [2] = settings: same experimental system, Vidal et al, 1997; cited from earlier work
β-1,3-glucanase mRNA = experiment: Tunicamycin treatment of tobacco protoplasts, Northern blot of β-1,3-glucanase; type: cell-based, Nicotiana tabacum; settings: tunicamycin 20 μg/mL
Method: To compare the CDE- and UPR-mediated induction of BiP, we wanted to test if both stimuli are additive. […] This is not surprising as protoplasts are prepared with CDEs. These protoplasts were then treated with tunicanycin, to superimpose the UPR onto the CDE response. […] The additional ER stress could trap BiP in malfolded protein complexes, thus making it unavailable to promote PR protein synthesis on the rough ER.
During prolonged incubation times, transcript levels encoding secretory proteins recover to almost normal (initial) values again. Identical results were obtained with other transcripts encoding the secretory proteins acidic chitinase and basic chitinase present in tobacco protoplasts, showing that the effect is not restricted to β-1,3-glucanase (data not shown).
as §1, with “water.” for “water. Gel blots of total RNA denatured in formamide and formaldehyde were prepared. RNA was blotted onto Hybond-N membrane (Amersham Corp), as described by the manufacturer.”

[3] = system: α-amylase synthesis in tobacco protoplasts; experiment: Transient expression in tobacco protoplasts (pNL200), α-amylase activity; type: cell-based, Nicotiana tabacum; settings: tunicamycin 20 μg/mL, 20 hr
Excerpt: We have established a model system based on the comparison of protein biosynthesis in the cytosol and on the rough ER using transient expression. A plasmid was constructed (pNL200, FIG. 12A) containing two genes, one encoding the secreted barley α-amylase (Rogers, 1985) and the other encoding the cytosolic marker β-glucuronidase (GUS; Jefferson et al., 1987). α-Amylase was used to measure secretory protein biosynthesis, and GUS was used to control for transfection efficiency and overall cell viability. We compared cells under normal culture conditions with cells subjected to ER stress by treatment with tunicamycin. […] Since α-amylase is not glycosylated, tunicamycin should not have a direct effect on this protein. The tunicamycin effect is protein-specific and not dependent on the promoter used. […]
Tobacco leaf protoplasts (from transformed or untransformed plants) were prepared, and electroporation experiments were performed as previously described (Denecke and Vitale, 1995), with minor modifications to the electroporation conditions. […] After 24 or 48 hr, the protoplasts were analysed by enzymatic assay or by protein gel blotting. […]
α-Amylase activity was measured with a kit (Megazyme, Australia). […] The absorbance was measured at a wavelength of 405 nm, with a microtiter plate reader against a blank containing stop buffer alone. […]

O=C(O)c1ccccc1O [SA, Salicylic Acid]
PR1 induction during SA-treatment in saiI mutant (PR1 mRNA [1]; Arabidopsis saiI mutant): completely abolished
time after SA-treatment at which induction of PR1 is detected (PR1 mRNA [1]; WT Arabidopsis, light): 3 h
time until which PR1 induction continues to increase (PR1 mRNA [1]; WT Arabidopsis, light): ≤ 8 h
time until which PR1 continues to accumulate (shown previously) (PR1 mRNA [2]): ≤ 48 h

tunicamycin
transcript level of β-1,3-glucanase during UPR-induced BiP transcription (time course) (β-1,3-glucanase mRNA; protoplasts): rapidly decreases
β1,3-glucanase expression in protoplasts (β-1,3-glucanase mRNA; 2.5 hrs): inhibited
total α-amylase activity in the cell suspension [3]: greatly reduced
